In patent publication US12098151B2 (priority 2018, dated 2024):
“And” between values parts separate entries of the source, which are not always exact repeats. Identical values can stand only once. Like-named read-outs stand apart in the source and are kept apart here.

Key:
[1] = tested on: Lassa virus (LF2384 strain); test: microbe, parasite or virus in culture; assay type: cell-based; settings: Mammarenavirus lassaense, Vero, 72 h, read-out: Log10 of IC90 (nM) (converted)
[2] = tested on: Lassa virus (Josiah strain); assay type: cell-based
Junin virus = test: microbe, parasite or virus in culture; assay type: cell-based
LCMV = test: microbe, parasite or virus in culture; assay type: cell-based, lymphocytic choriomeningitis virus (LCMV)
[3] = Mammarenavirus juninense, HEK-293T, 96 h
[4] = Mammarenavirus choriomeningitidis, KB, 96 h

Structure (SMILES)	EC50 (Junin virus; [3])	EC50 (LCMV; [4])	other results
CC(C)N1CN(C2c3ccccc3CCc3ccccc32)n2cc(C(=O)O)c(=O)c(O)c2C1=O [Compound I-021]	8.2 nM	2 nM	IC90 [1]: 3.1 nM; Lassa virus proliferation inhibitory effect compared with control compound Ribavirin [2]: significantly stronger Lassa virus proliferation inhibitory effect than the control compound Ribavirin; Virus infectivity titer (24 h.p.i., PFU/ml) [2]: 5 × 10^4 PFU/ml and <10 PFU/ml; Virus infectivity titer (48 h.p.i., PFU/ml) [2]: 5 × 10^6 PFU/ml and 5 × 10^3 PFU/ml
O=C(O)c1cn2c(c(O)c1=O)C(=O)N1CCCCN1C2C(c1ccccc1)c1ccccc1 (stereo not shown) [Compound I-043]	281 nM	119 nM	
COCCCN1C[C@H](C(c2ccccc2)c2ccccc2)n2cc(C(=O)O)c(=O)c(O)c2C1=O [Compound I-044]	354 nM	40 nM	
COCCN1C[C@H](C(c2ccccc2)c2ccccc2)n2cc(C(=O)O)c(=O)c(O)c2C1=O [Compound I-045]			EC50 (Junin virus): 374 nM; EC50 (LCMV): 24 nM
CN1C[C@H](C(c2ccccc2)c2ccccc2)n2cc(C(=O)O)c(=O)c(O)c2C1=O [Compound I-046]	382 nM	69 nM	
O=C(O)c1cn2c(c(O)c1=O)C(=O)N1CCCO[C@H]1[C@@H]2C(c1ccccc1)c1ccccc1 [Compound I-047]	414 nM	372 nM	
O=C(O)c1cn2c(c(O)c1=O)C(=O)N(CCOc1ccc(F)cc1)C[C@@H]2C(c1ccccc1)c1ccccc1 [Compound I-048]	518 nM	56 nM	
O=C(O)c1cn2c(c(O)c1=O)C(=O)N(CC(F)(F)F)C[C@@H]2C(c1ccccc1)c1ccccc1 [Compound I-049]	620 nM	160 nM	
O=C(O)c1cn2c(c(O)c1=O)C(=O)N(Cc1ccccc1)CC2Cc1ccccc1 (stereo not shown) [Compound I-051]	739 nM	722 nM	
O=C(O)c1cn2c(c(O)c1=O)C(=O)NC[C@@H]2C(c1ccccc1)c1ccccc1 [Compound I-053]	987 nM	275 nM	
O=C(O)c1cn2c(c(O)c1=O)C(=O)N1CCCO[C@@H]1[C@@H]2Cc1ccccc1 [Compound I-054]	1620 nM	1960 nM	
COCCN1C[C@H](Cc2ccccc2)n2cc(C(=O)O)c(=O)c(O)c2C1=O [Compound I-057]	2180 nM	225 nM	
CC(C)N1CN(C2c3cc(F)c(F)cc3CCc3cc(F)c(F)cc32)n2cc(C(=O)O)c(=O)c(O)c2C1=O [Compound I-074]	50 nM	48 nM	
Cc1cccc2c1CCc1c(C)cccc1C2N1CN(C(C)C)C(=O)c2c(O)c(=O)c(C(=O)O)cn21 [Compound I-075]	1.7 nM	3.1 nM	
Cc1ccc2c(c1)CCc1cc(C)ccc1C2N1CN(C(C)C)C(=O)c2c(O)c(=O)c(C(=O)O)cn21 [Compound I-076]	34 nM	13 nM	
CC(C)N1CN(C2c3cccc(F)c3CCc3c(F)cccc32)n2cc(C(=O)O)c(=O)c(O)c2C1=O [Compound I-077]	1.8 nM	3.3 nM	
CCN1CN(C2c3ccccc3CCc3ccccc32)n2cc(C(=O)O)c(=O)c(O)c2C1=O [Compound I-078]	3.3 nM	6.2 nM	IC90 [1]: 3.14 nM
COCCN1CN(C2c3ccccc3CCc3ccccc32)n2cc(C(=O)O)c(=O)c(O)c2C1=O [Compound I-079]	5 nM	5.3 nM	
CC(C)N1CN(Cc2ccccc2-c2ccccc2)n2cc(C(=O)O)c(=O)c(O)c2C1=O [Compound I-080]	437 nM	499 nM	
O=C(O)c1cn2c(c(O)c1=O)C(=O)N(Cc1ccc(F)cc1F)CN2C1c2ccccc2CCc2ccccc21 [Compound I-081]	6.1 nM	24 nM	

Structure (SMILES)	EC50 (Junin virus; [3])	EC50 (LCMV; [4])	other results
O=C(O)c1cn2c(c(O)c1=O)C(=O)N(C1CC1)CN2C1c2ccccc2CCc2ccccc21 [II-001]	4.5 nM	8.1 nM	
O=C(O)c1cn2c(c(O)c1=O)C(=O)N(C[C@@H]1CCCO1)CN2C1c2ccccc2CCc2ccccc21 [II-002]	12 nM	7.1 nM	
O=C(O)c1cn2c(c(O)c1=O)C(=O)N(CC1CC1)CN2C1c2ccccc2CCc2ccccc21 [II-003]	6.7 nM	8 nM	IC90 [1]: 2.53 nM
CN1CN(C2c3ccccc3CCc3ccccc32)n2cc(C(=O)O)c(=O)c(O)c2C1=O [II-004]	9.2 nM	24 nM	
CC(C)N1CN(C2c3ccccc3Oc3ccccc32)n2cc(C(=O)O)c(=O)c(O)c2C1=O [III-001]	110 nM	19 nM	
CC(C)N1CN(C2c3ccccc3C=Cc3ccccc32)n2cc(C(=O)O)c(=O)c(O)c2C1=O [III-002]	4.4 nM	11 nM	
CC(C)N1CN(C2c3ccccc3CCc3ccccc32)n2cc(C(N)=O)c(=O)c(O)c2C1=O [III-003]	302 nM	676 nM	
CON(C)C(=O)c1cn2c(c(O)c1=O)C(=O)N(C(C)C)CN2C1c2ccccc2CCc2ccccc21 [III-004]	21 nM	27 nM	
CC(C)N1CN(Cc2ccccc2CCc2ccccc2)n2cc(C(=O)O)c(=O)c(O)c2C1=O [III-005]	243 nM	90 nM	
CCCCCN1CN(C2c3ccccc3CCc3ccccc32)n2cc(C(=O)O)c(=O)c(O)c2C1=O [III-006]	9.4 nM	25 nM	
O=C(O)c1cn2c(c(O)c1=O)C(=O)N(CC1CCOCC1)CN2C1c2ccccc2CCc2ccccc21 [III-007]	16 nM	14 nM	
COc1ccc(CN2CN(C3c4ccccc4CCc4ccccc43)n3cc(C(=O)O)c(=O)c(O)c3C2=O)cc1 [III-008]	14 nM	19 nM	
O=C(O)c1cn2c(c(O)c1=O)C(=O)N(Cc1ccc(F)cc1Cl)CN2C1c2ccccc2CCc2ccccc21 [III-009]	19 nM	37 nM	
O=C(O)c1cn2c(c(O)c1=O)C(=O)N(CCc1ccc(F)cc1F)CN2C1c2ccccc2CCc2ccccc21 [III-011]	97 nM	55 nM	
O=C(O)c1cn2c(c(O)c1=O)C(=O)N(CC1CCCCC1)CN2C1c2ccccc2CCc2ccccc21 [III-012]	21 nM	38 nM	
O=C(O)c1cn2c(c(O)c1=O)C(=O)N(CC1CC1)CN2C1c2ccccc2CSc2ccccc21 (stereo not shown) [III-013]			EC50 (Junin virus): 3.7 nM; EC50 (LCMV): 3.3 nM
O=C(O)c1cn2c(c(O)c1=O)C(=O)N(CC1CC1)CN2C1c2ccccc2CSc2ccccc21 (stereo not shown) [III-014]			EC50 (Junin virus): 276 nM; EC50 (LCMV): 130 nM
O=C(O)c1cn2c(c(O)c1=O)C(=O)N(CC1CCCC1)CN2C1c2ccccc2CCc2ccccc21 [III-015]	25 nM	17 nM	
O=C(O)c1cn2c(c(O)c1=O)C(=O)N(CC1CCC1)CN2C1c2ccccc2CCc2ccccc21 [III-016]	12 nM	7.3 nM	
O=C(O)c1cn2c(c(O)c1=O)C(=O)N(C(C1CC1)C1CC1)CN2C1c2ccccc2CCc2ccccc21 [III-017]	4.9 nM	4.4 nM	

Structure (SMILES)	EC50 (Junin virus; [3])	EC50 (LCMV; [4])	other results
O=C(O)c1cn2c(c(O)c1=O)C(=O)N(CC1CC1)CN2C(c1ccc(-c2ccccc2)cc1)c1ccc(-c2ccccc2)cc1 [III-018]	173 nM	399 nM	
CCN1CN(C2c3ccccc3CCc3ccccc32)n2nc(C(=O)O)c(=O)c(O)c2C1=O [III-019]	72 nM	39 nM	
CC(C)N1CN(C2c3ccccc3CSc3ccccc32)n2cc(C(=O)O)c(=O)c(O)c2C1=O (stereo not shown) [III-020]			EC50 (Junin virus): > 200 nM; EC50 (LCMV): 121 nM
CC(C)N1CN(C2c3ccccc3CSc3ccccc32)n2cc(C(=O)O)c(=O)c(O)c2C1=O (stereo not shown) [III-021]			EC50 (Junin virus): 6.2 nM; EC50 (LCMV): 4.9 nM
CC(C)N1CN(C2c3ccc(F)cc3CCc3cc(F)ccc32)n2cc(C(=O)O)c(=O)c(O)c2C1=O [III-023]	17 nM	14 nM	
Cc1ccc2c(c1)C(N1CN(C(C)C)C(=O)c3c(O)c(=O)c(C(=O)O)cn31)c1cc(C)ccc1CC2 [III-024]	> 200 nM	83 nM	
CC(C)N1CN(C2c3ccc(Cl)cc3CCc3cc(Cl)ccc32)n2cc(C(=O)O)c(=O)c(O)c2C1=O [III-025]	31 nM	17 nM	
O=C(O)c1cn2c(c(O)c1=O)C(=O)N(CC1CC1)CN2C(c1ccccc1)c1ccccc1 [III-027]	13 nM	19 nM	
O=C(O)c1cn2c(c(O)c1=O)C(=O)N(C(C1CC1)C1CC1)CN2C1c2ccccc2CSc2ccccc21 (stereo not shown) [III-028]			EC50 (Junin virus): 2.4 nM; EC50 (LCMV): 2.1 nM
O=C(O)c1cn2c(c(O)c1=O)C(=O)N(C(C1CC1)C1CC1)CN2C1c2ccccc2CSc2ccccc21 (stereo not shown) [III-029]			EC50 (Junin virus): 182 nM; EC50 (LCMV): 63 nM
O=C(O)c1cn2c(c(O)c1=O)C(=O)N(CC1CC1)CN2C(c1cccc(-c2ccccc2)c1)c1cccc(-c2ccccc2)c1 [III-030]	18 nM	78 nM	
Cc1cccc2c1CCc1c(C)cccc1C2N1CN(CC2CC2)C(=O)c2c(O)c(=O)c(C(=O)O)cn21 [III-031]	4.5 nM	4.1 nM	
Cc1cccc2c1CCc1c(C)cccc1C2N1CN(C(C2CC2)C2CC2)C(=O)c2c(O)c(=O)c(C(=O)O)cn21 [III-032]	17 nM	28 nM	
Cc1cccc2c1CCc1c(C)cccc1C2N1CN(CC2CCC2)C(=O)c2c(O)c(=O)c(C(=O)O)cn21 [III-033]	6.4 nM	8.8 nM	
O=C(O)c1cn2c(c(O)c1=O)C(=O)N(CC1CC1)CN2C1c2cccc(F)c2CCc2c(F)cccc21 [III-034]	4.5 nM	3.5 nM	
O=C(O)c1cn2c(c(O)c1=O)C(=O)N(CC1CCC1)CN2C1c2cccc(F)c2CCc2c(F)cccc21 [III-035]	9.6 nM	7.2 nM	
O=C(O)c1cn2c(c(O)c1=O)C(=O)N(C(C1CC1)C1CC1)CN2C1c2cccc(F)c2CCc2c(F)cccc21 [III-036]	5.1 nM	6.3 nM	
NC(=O)c1ncn([C@@H]2O[C@H](CO)[C@@H](O)[C@H]2O)n1 [Ribavirin, reference compound]			Virus infectivity titer (48 h.p.i., PFU/ml) [2]: 9 × 10^4 PFU/ml and 6 × 10^6 PFU/ml and 5 × 10^6 PFU/ml
